The nature of assay [1]: Inhibition of HCMV protease. The arrangement: species or system Human betaherpesvirus 5.
The next assay concerns M109. The assay can be described thus: Cytotoxicity against mouse M109 cells after 72 hrs by XTT assay. The settings on record: M109, 72 h. In kind it is functional, cell-based.

Molecules are shown by their SMILES.

As to `CC(C)C1O/C(=C2/C(=O)NC(CC(N)=O)C2=O)C=CC1C` (configuration not stated) [BRIPIODIONEN], the IC50 was found to be 30 µM in assay [1] and 34 µM in the assay on M109.

The record behind these values is ChEMBL document CHEMBL1146433, “Bripiodionen, a new inhibitor of human cytomegalovirus protease from Streptomyces sp. WC76599” (J Nat Prod, 1997).
